Test system: silver leaf whitefly
Assay: Test Example 6: spray on cabbage with hatched larvae of silver leaf whitefly
Format: in vivo
Conditions: Bemisia argentifolii, 168 h; 500 ppm spray solution, 20 ml/cup on cabbage with hatched larvae of silver leaf whitefly; counted seven days after spraying; read-out: Controlling value
Procedure: At the same time, cabbage was planted in a polyethylene cup, and grown until the first true leaf was developed. All leaves excluding the first true leaf were cut off. On the first true leaf, imagoes of silver leaf whitefly were released and allowed to lay eggs for about 24 hours. The cabbage was retained in a greenhouse for 8 days. When larvae hatched from the laid eggs, the test spray solution as described above was sprayed in an amount of 20 ml/cup to the cabbage. Seven days after spraying, the number of larvae surviving on the cabbage was counted, and a controlling value was calculated by the following equation: Controlling value(%)={1−(Cb×Tai)/(Cai×Tb)}×100 wherein, Cb: the number of worms in a non-treated section before treatment Cai: the number of worms in a non-treated section on observation Tb: the number of worms in a treated-section before treatment Tai: the number of worms in a treated-section on observation.

Row | Structure (SMILES) | pest or weed control at 500 ppm
1 | COC(=O)NNC(=O)c1cc(Cl)cc(C)c1NC(=O)c1cc(C(F)(F)F)nn1-c1ncccc1Cl [(5)] | ≥ 90%
2 | CCOC(=O)NNC(=O)c1cccc(C)c1NC(=O)c1cc(C(F)(F)F)nn1-c1ncccc1Cl [(32)] | ≥ 90%
3 | COC(=O)NNC(=O)c1cc(Cl)cc(C)c1NC(=O)c1cc(Br)nn1-c1ncccc1Cl [(34)] | ≥ 90%
4 | COC(=O)NNC(=O)c1cc(Cl)cc(Cl)c1NC(=O)c1cc(C(F)(F)F)nn1-c1ncccc1Cl [(56)] | ≥ 90%
5 | COC(=O)NNC(=O)c1cc(Cl)cc(Br)c1NC(=O)c1cc(C(F)(F)F)nn1-c1ncccc1Cl [(59)] | ≥ 90%
6 | COC(=O)NNC(=O)c1cc(Cl)cc(C)c1NC(=O)c1cc(Br)cn1-c1ncccc1Cl [(93)] | ≥ 90%
7 | COC(=O)N(NC(=O)c1cc(Cl)cc(Br)c1NC(=O)c1cc(Br)nn1-c1ncccc1Cl)C(=O)OC [(107)] | ≥ 90%
8 | COC(=O)N(C)NC(=O)c1cc(Cl)cc(C)c1NC(=O)c1cc(Br)nn1-c1ncccc1Cl [(114)] | ≥ 90%
9 | COC(=O)N(C)N(C)C(=O)c1cc(Cl)cc(C)c1NC(=O)c1cc(Br)nn1-c1ncccc1Cl [(119)] | ≥ 90%
10 | COC(=O)NNC(=O)c1cc(Cl)cc(C)c1NC(=O)c1cc(Br)c(Br)n1-c1ncccc1Cl [(127)] | ≥ 90%
11 | COC(=O)NNC(=O)c1cc(Cl)cc(C)c1NC(=O)c1ccc(Cl)n1-c1ncccc1Cl [(129)] | ≥ 90%
12 | COC(=O)N(C)N(C)C(=O)c1cc(C#N)cc(C)c1NC(=O)c1cc(Br)nn1-c1ncccc1Cl [(144)] | ≥ 90%
13 | COC(=O)NNC(=O)c1cc(Cl)cc(C)c1NC(=O)c1cc(Cl)cn1-c1ncccc1Cl [(153)] | ≥ 90%
14 | COC(=O)N(NC(=O)c1cc(Cl)cc(C)c1NC(=O)c1cc(Br)cn1-c1ncccc1Cl)C(=O)OC [(158)] | ≥ 90%
15 | COC(=O)N(NC(=O)c1cc(Br)cc(Br)c1NC(=O)c1cc(Br)cn1-c1ncccc1Cl)C(=O)OC [(201)] | ≥ 90%
16 | COC(=O)N(C)N(C)C(=O)c1cc(Br)cc(Br)c1NC(=O)c1cc(Br)nn1-c1ncccc1Cl [(204)] | ≥ 90%
17 | COC(=O)N(C)NC(=O)c1cc(Br)cc(Br)c1NC(=O)c1cc(Br)cn1-c1ncccc1Cl [(209)] | ≥ 90%
18 | COCCOC(=O)N(NC(=O)c1cc(Cl)cc(C)c1NC(=O)c1cc(Br)nn1-c1ncccc1Cl)C(=O)OC [(215)] | ≥ 90%
19 | Cc1cc(Cl)cc(C(=O)NNC(=O)OCCF)c1NC(=O)c1cc(Br)nn1-c1ncccc1Cl [(221)] | ≥ 90%
20 | C#CCOC(=O)NNC(=O)c1cc(Br)cc(Br)c1NC(=O)c1cc(Br)cn1-c1ncccc1Cl [(223)] | ≥ 90%
21 | COC(=O)NNC(=O)c1cc(Br)cc(Br)c1NC(=O)c1ccc(S(C)(=O)=O)n1-c1ncccc1Cl [(226)] | ≥ 90%
22 | COC(=O)N(C)N(C)C(=O)c1cc(Cl)cc(Cl)c1NC(=O)c1cc(Br)nn1-c1ncccc1Cl [(231)] | ≥ 90%

Test system: cotton aphids
Assay: Test Example 2: spray on cucumber infested with cotton aphids
Format: in vivo, Aphis gossypii
Conditions: 500 ppm spray solution, 20 ml/cup on cucumber with about 30 cotton aphids; counted six days after spraying
Procedure: At the same time, cucumber was planted in a polyethylene cup, and was grown until the first true leaf was developed. About 30 cotton aphids were put on the cucumber. One day after, the test spray solution as described above was sprayed in an amount of 20 ml/cup on the cucumber. Six days after spraying, the number of cotton aphids was counted, and a controlling value was calculated by the following equation: Controlling value(%)={1−(Cb×Tai)/(Cai×Tb)}×100 wherein, Cb: the number of insects in a non-treated section before treatment Cai: the number of insects in a non-treated section on observation Tb: the number of insects in a treated-section before treatment Tai: the number of insects in a treated-section on observation. Furthermore, the same way as Test Example 2, test spray solution of the comparative compound of the formula: […]

Row | Structure (SMILES) | Controlling value
23 | COC(=O)CNC(=O)c1cccc(C)c1NC(=O)c1cc(C(F)(F)F)nn1-c1ncccc1Cl | less than 30%

Test system: Frankliniella occidentalis
Assay: Test Example 5: sprayed cucumber leaf, larvae of Frankliniella occidentalis
Format: in vivo
Conditions: 168 h; 500 ppm spray solution, 20 ml/cup on cucumber, cut first true leaf; 20 larvae of Frankliniella occidentalis; counted seven days after spraying; read-out: Controlling value
Procedure: At the same time, cucumber was planted in a polyethylene cup, and was grown until the first true leaf was developed. The test spray solution as described above was sprayed in an amount of 20 ml/cup on the cucumber. After the drug solution sprayed on the cucumber was dried, the first true leaf was cut and then placed on a filter paper (diameter: 70 mm) containing water in a polyethylene cup (diameter: 110 mm). On the cucumber leaf, 20 larvae of Frankliniella occidentalis were released, and the polyethylene cup was capped. Seven days after spraying, the number of insects surviving on the cucumber leaf was counted, and a controlling value was calculated by the following equation: Controlling value(%)={1−(Cb×Tai)/(Cai×Tb)}×100 wherein, Cb: the number of insects in a non-treated section before treatment Cai: the number of insects in a non-treated section on observation Tb: the number of insects in a treated-section before treatment Tai: the number of insects in a treated-section on observation.

Row | Structure (SMILES) | pest or weed control at 500 ppm
24 | Cc1cc(Cl)cc(C(=O)NNC=O)c1NC(=O)c1cc(C(F)(F)F)nn1-c1ncccc1Cl [(17)] | ≥ 90%
25 | CC(=O)NNC(=O)c1cc(Cl)cc(C)c1NC(=O)c1cc(C(F)(F)F)nn1-c1ncccc1Cl [(27)] | ≥ 90%
26 | CSC(=O)NNC(=O)c1cc(Cl)cc(C)c1NC(=O)c1cc(C(F)(F)F)nn1-c1ncccc1Cl [(29)] | ≥ 90%
27 | COC(=O)NNC(=O)c1cc(Cl)cc(I)c1NC(=O)c1cc(Br)nn1-c1ncccc1Cl [(79)] | ≥ 90%
28 | COC(=O)NNC(=O)c1cccc(C(F)(F)F)c1NC(=O)c1cc(Br)nn1-c1ncccc1Cl [(81)] | ≥ 90%
29 | COC(=O)NNC(=O)c1ccc(Cl)c(C)c1NC(=O)c1cc(Br)nn1-c1ncccc1Cl [(85)] | ≥ 90%
30 | COC(=O)NNC(=O)c1c(Cl)ccc(C)c1NC(=O)c1cc(Br)nn1-c1ncccc1Cl [(88)] | ≥ 90%
31 | COC(=O)NNC(=O)c1cc(Cl)cc(C)c1NC(=O)c1cc(SC)nn1-c1ncccc1Cl [(99)] | ≥ 90%
32 | COC(=O)NNC(=O)c1cc2ccccc2c(Br)c1NC(=O)c1cc(Br)nn1-c1ncccc1Cl [(140)] | ≥ 90%
33 | COC(=O)N(NC(=O)c1cc(Cl)cc(C)c1NC(=O)c1cc(Cl)cn1-c1ncccc1Cl)C(=O)OC [(159)] | ≥ 90%
34 | COC(=O)N(NC(=O)c1cc(Cl)cc(C)c1NC(=O)c1cc(Cl)c(Cl)n1-c1ncccc1Cl)C(=O)OC [(167)] | ≥ 90%
35 | COC(=O)NNC(=O)c1cc([N+](=O)[O-])cc(C)c1NC(=O)c1cc(Br)nn1-c1ncccc1Cl [(183)] | ≥ 90%
36 | COC(=O)NNC(=O)c1cc(Cl)cc(C)c1NC(=O)c1cc(Br)cn1-c1ccncc1Cl [(187)] | ≥ 90%
37 | CN(C)C(=O)NN(C)C(=O)c1cc(Br)cc(Br)c1NC(=O)c1cc(Br)cn1-c1ncccc1Cl [(206)] | ≥ 90%
38 | COC(=O)NNC(=O)c1cc(Br)cc(Br)c1NC(=O)c1ccc(S(C)(=O)=O)n1-c1ncccc1Cl [(226)] | ≥ 90%
39 | COC(=O)NNC(=O)c1cc(Br)cc(Br)c1NC(=O)c1ccc(SC)n1-c1ncccc1Cl [(227)] | ≥ 90%
40 | COC(=O)N(C)N(C)C(=O)c1cc(Cl)cc(Cl)c1NC(=O)c1cc(Br)nn1-c1ncccc1Cl [(231)] | ≥ 90%

Reference: patent US7968573B2, “Hydrazide compound and pesticidal use of the same” (Sumitomo Chemical Company, Limited, priority 2008, dated 2011)
